Source: patent US9771359B1, “Substituted oxazole- and thiazole-based carboxamide and urea derivatives as vanilloid receptor ligands II” (MEDIFRON DBT INC., priority 2014, dated 2017)
Structures can show the parent of a compound that is named as a salt.

target: vanilloid receptor 1 (VR1/TRPV1) (Homo sapiens (Human), UniProt Q8NER1); assay: FLIPR assay, Ca2+ influx in CHO K1 cells transfected with the human VR1 gene; assay type: cell-based; settings: CHO-K1; @5 μM test compound; capsaicin 100 nM; read-out: inhibition (as a percentage), Cap
Sequence (Q8NER1 whole entry): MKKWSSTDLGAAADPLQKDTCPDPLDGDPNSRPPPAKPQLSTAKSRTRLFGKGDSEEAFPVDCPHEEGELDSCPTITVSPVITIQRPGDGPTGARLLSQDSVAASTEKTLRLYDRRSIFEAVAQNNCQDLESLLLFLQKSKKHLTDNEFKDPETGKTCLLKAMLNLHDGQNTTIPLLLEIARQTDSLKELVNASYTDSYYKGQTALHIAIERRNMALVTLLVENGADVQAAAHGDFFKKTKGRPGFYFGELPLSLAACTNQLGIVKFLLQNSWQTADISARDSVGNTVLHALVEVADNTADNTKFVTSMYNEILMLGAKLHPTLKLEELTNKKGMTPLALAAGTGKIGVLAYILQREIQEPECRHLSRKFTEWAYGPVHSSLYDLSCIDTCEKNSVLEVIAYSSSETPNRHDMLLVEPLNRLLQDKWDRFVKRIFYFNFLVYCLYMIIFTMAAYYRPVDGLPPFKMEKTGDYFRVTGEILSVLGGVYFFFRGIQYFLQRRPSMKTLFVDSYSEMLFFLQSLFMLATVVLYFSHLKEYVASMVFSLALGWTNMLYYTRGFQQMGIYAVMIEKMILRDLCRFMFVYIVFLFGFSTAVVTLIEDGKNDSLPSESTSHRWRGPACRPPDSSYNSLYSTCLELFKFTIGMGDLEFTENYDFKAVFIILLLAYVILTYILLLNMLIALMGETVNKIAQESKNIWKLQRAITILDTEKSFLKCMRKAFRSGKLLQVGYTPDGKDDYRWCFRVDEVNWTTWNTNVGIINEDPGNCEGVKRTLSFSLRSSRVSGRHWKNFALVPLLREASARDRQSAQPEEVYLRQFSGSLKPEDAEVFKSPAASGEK
Method: Furthermore, preference may be given to compounds according to the first aspect of the invention that cause a 50% displacement of capsaicin, which is present at a concentration of 100 nM, in a FLIPR assay with CHO K1 cells which were transfected with the human VR1 gene at a concentration of less than 2 000 nM, preferably less than 1 000 nM, particularly preferably less than 300 nM, most particularly preferably less than 100 nM, even more preferably less than 75 nM, additionally preferably less than 50 nM, most preferably less than 10 nM. In the process, the Ca^2+ influx is quantified in the FLIPR assay with the aid of a Ca^2+-sensitive dye (type Fluo-4, Molecular Probes Europe BV, Leiden, the Netherlands) in a fluorescent imaging plate reader (FLIPR, Molecular Devices, Sunnyvale, USA), as described hereinafter.
The FLIPR protocol consists of 2 substance additions during a kinetic measurement. First the compounds to be tested (5 μM) are pipetted onto the cells and the Ca^2+ influx is determined in comparison to the control (capsaicin 10 μM), providing the result as % activation and representing the compound-alone effect (calculation at peak signal related to baseline). […] After 5 min incubation, the Ca^2+ influx is related to an injection of 100 nM of capsaicin and thereby the antagonistic effect of the test compounds detected.
Desensitising agonists and antagonists lead to suppression of the Ca^2+ influx. The % inhibition is calculated compared to the maximum achievable inhibition with 10 μM of capsaicin. Triple analyses (n=3) are carried out and repeated in at least 3 independent experiments.
Starting from the percentage displacement caused by different concentrations of the compounds to be tested of general formula I, IC50 inhibitory concentrations which cause a 50-% displacement of capsaicin were calculated. Ki values for the test substances were obtained by conversion by means of the Cheng-Prusoff equation (Cheng, Prusoff; Biochem. Pharmacol. 22, 3099-3108, 1973).
Chinese hamster ovary cells (CHO K1 cells, European Collection of Cell Cultures (ECACC) United Kingdom) are stably transfected with the VR1 gene. For functional testing, these cells are plated out on poly-D-lysine-coated black 96-well plates having a clear base (BD Biosciences, Heidelberg, Germany) at a density of 25,000 cells/well. The cells are incubated overnight at 37° C. and 5% CO2 in a culture medium (Ham's F12 nutrient mixture, 10% by volume of FCS (foetal calf serum), 18 μg/ml of L-proline). The next day the cells are incubated with Fluo-4 (Fluo-4 2 μM, 0.01% by volume of Pluronic F127, Molecular Probes in HBSS (Hank's buffered saline solution), Gibco Invitrogen GmbH, Karlsruhe, Germany) for 30 min at 37° C. Subsequently, the plates are washed three times with HBSS buffer and after further incubation for 15 min at RT used for Ca^2+ measurement in a FLIPR assay. The Ca^2+-dependent fluorescence is measured before and after the addition of the substances to be tested (λex wavelength=488 nm, λem=540 nm). Quantification is carried out by measuring the highest fluorescence intensity (FC, fluorescence counts) over time.

SMILES	inhibition at 5 µM [%]
CS(=O)(=O)CCc1ccc(NC(=O)NCc2oc(C(F)(F)F)nc2-c2cccc(Cl)c2)cn1 [EX-30, 1-((4-(3-chlorophenyl)-2-(trifluoromethyl)oxazol-5-yl)methyl)-3-(6-(2-(methylsulfonyl)ethyl)pyridin-3-yl)urea]	41
O=C(NCc1oc(C(F)(F)F)nc1-c1cccc(Cl)c1)Nc1ccc(CCO)nc1 [EX-37, 1-((4-(3-chlorophenyl)-2-(trifluoromethyl)oxazol-5-yl)methyl)-3-(6-(2-hydroxyethyl)pyridin-3-yl)urea]	46
CC(C)(C)c1nc(-c2cccc(Cl)c2)c(CNC(=O)Nc2ccc(COCCO)nc2)o1 [EX-46, 1-((2-(tert-butyl)-4-(3-chlorophenyl)oxazol-5-yl)methyl)-3-(6-((2-hydroxyethoxy)methyl)pyridin-3-yl)urea dihydrochloride]	55
O=C(NCc1oc(C(F)(F)F)nc1-c1cccc(Cl)c1)Nc1ccc(COCCO)nc1 [EX-48, 1-((4-(3-chlorophenyl)-2-(trifluoromethyl)oxazol-5-yl)methyl)-3-(6-((2-hydroxyethoxy)methyl)pyridin-3-yl)urea dihydrochloride]	31

same assay, conditions: compound 5 μM, % activation compared with control capsaicin 10 μM

SMILES	compound-alone effect on Ca2+ influx (agonist / partial agonist)
CC(C)(C)c1nc(-c2cccc(Cl)c2)c(CNC(=O)Nc2ccc(CO)nc2)o1 [EX-25, 1-((2-(tert-butyl)-4-(3-chlorophenyl)oxazol-5-yl)methyl)-3-(6-(hydroxymethyl)pyridin-3-yl)urea]	pAG (A Ca^2+ influx of 10%-60% reveals a partial agonist (pAG))
CC(C)(C)c1nc(-c2cccc(Cl)c2)c(CNC(=O)Nc2ccc(CO)nc2)s1 [EX-26, 1-((2-(tert-butyl)-4-(3-chlorophenyl)thiazol-5-yl)methyl)-3-(6-(hydroxymethyl)pyridin-3-yl)urea]	pAG (A Ca^2+ influx of 10%-60% reveals a partial agonist (pAG))
O=C(NCc1sc(C(F)(F)F)nc1-c1cccc(Cl)c1)Nc1ccc(CCO)nc1 [EX-34, 1-((4-(3-chlorophenyl)-2-(trifluoromethyl)thiazol-5-yl)methyl)-3-(6-(2-hydroxyethyl)pyridin-3-yl)urea]	pAG (A Ca^2+ influx of 10%-60% reveals a partial agonist (pAG))
CC(C)(C)c1nc(-c2cccc(Cl)c2)c(CNC(=O)Nc2ccc(CCO)nc2)s1 [EX-36, 1-((2-(tert-butyl)-4-(3-chlorophenyl)thiazol-5-yl)methyl)-3-(6-(2-hydroxyethyl)pyridin-3-yl)urea]	AG (a Ca^2+ influx of >60% relates to a pure agonist (AG))
CC(C)(C)c1nc(-c2cccc(Cl)c2)c(CNC(=O)Nc2ccc3c(c2)OCO3)s1 [EX-50, 1-(benzo[d][1,3]dioxol-5-yl)-3-((2-(tert-butyl)-4-(3-chlorophenyl)thiazol-5-yl)methyl)urea]	pAG (A Ca^2+ influx of 10%-60% reveals a partial agonist (pAG))

same assay, conditions: displacement of capsaicin 100 nM; Ki from IC50 by Cheng-Prusoff equation; read-out: (f) Ki (human) [nM] Cap

Ki [nM]	SMILES
78.4	CC(C)(C)c1nc(-c2cccc(Cl)c2)c(CNC(=O)Nc2ccc(CCO)nc2)o1 [EX-35, 1-((2-(tert-butyl)-4-(3-chlorophenyl)oxazol-5-yl)methyl)-3-(6-(2-hydroxyethyl)pyridin-3-yl)urea]
52.6	CC(C)(C)c1nc(-c2cccc(Cl)c2)c(CNC(=O)Nc2ccc(CNS(C)(=O)=O)cc2)o1 [EX-38, N-(4-(3-((2-(tert-butyl)-4-(3-chlorophenyl)oxazol-5-yl)methyl)ureido)benzyl)methanesulfonamide]
17.6	CC(C)(C)c1nc(-c2cccc(F)c2)c(CNC(=O)Nc2ccc(CNS(C)(=O)=O)cc2)s1 [EX-39, N-(4-(3-((2-(tert-butyl)-4-(3-fluorophenyl)thiazol-5-yl)methyl)ureido)benzyl)methanesulfonamide]
43.6	CC(C)(C)c1nc(-c2cccc(Cl)c2)c(CNC(=O)Nc2ccc(OCCO)nc2)o1 [EX-40, 1-((2-(tert-butyl)-4-(3-chlorophenyl)oxazol-5-yl)methyl)-3-(6-(2-hydroxyethoxy)pyridin-3-yl)urea]
27.5	CC(C)(C)c1nc(-c2cccc(Cl)c2)c(CNC(=O)Nc2ccc(OCCO)nc2)s1 [EX-41, 1-((2-(tert-butyl)-4-(3-chlorophenyl)thiazol-5-yl)methyl)-3-(6-(2-hydroxyethoxy)pyridin-3-yl)urea]
103	O=C(NCc1oc(C(F)(F)F)nc1-c1cccc(Cl)c1)Nc1ccc(OCCO)nc1 [EX-42, 1-((4-(3-chlorophenyl)-2-(trifluoromethyl)oxazol-5-yl)methyl)-3-(6-(2-hydroxyethoxy)pyridin-3-yl)urea]
29.8	O=C(NCc1sc(C(F)(F)F)nc1-c1cccc(Cl)c1)Nc1ccc(OCCO)nc1 [EX-43, 1-((4-(3-chlorophenyl)-2-(trifluoromethyl)thiazol-5-yl)methyl)-3-(6-(2-hydroxyethoxy)pyridin-3-yl)urea]
29.9	CC(C)(C)c1nc(CNC(=O)Nc2ccc(CNS(N)(=O)=O)cc2)c(-c2cccc(Cl)c2)o1 [EX-44, N-((5-(3-chlorophenyl)-2-(tertbutyl)oxazol-4-yl)methyl)-N′-(4-((sulfamoylamino)methyl)phenyl)urea]
33.3	CC(C)(C)c1nc(-c2cccc(Cl)c2)c(CNC(=O)Nc2ccc(COCCO)nc2)s1 [EX-47, 1-((2-(tert-butyl)-4-(3-chlorophenyl)thiazol-5-yl)methyl)-3-(6-((2-hydroxyethoxy)-methyl)pyridin-3-yl)urea dihydrochloride]
35	O=C(NCc1sc(C(F)(F)F)nc1-c1cccc(Cl)c1)Nc1ccc(COCCO)nc1 [EX-49, 1-((4-(3-chlorophenyl)-2-(trifluoromethyl)thiazol-5-yl)methyl)-3-(6-((2-hydroxyethoxy)methyl)pyridin-3-yl)urea dihydrochloride]
5.6	CC(C)(C)c1nc(-c2cccc(Cl)c2)c(CNC(=O)Nc2ccc3c(c2)OCO3)s1 [EX-50, 1-(benzo[d][1,3]dioxol-5-yl)-3-((2-(tert-butyl)-4-(3-chlorophenyl)thiazol-5-yl)methyl)urea]

The next lines start with the compound.

SMILES	Ki [nM]
CC(C)(C)c1nc(-c2cccc(Cl)c2)c(CNC(=O)Nc2ccc(CO)nc2)o1 [EX-25, 1-((2-(tert-butyl)-4-(3-chlorophenyl)oxazol-5-yl)methyl)-3-(6-(hydroxymethyl)pyridin-3-yl)urea]	73.1
CC(C)(C)c1nc(-c2cccc(Cl)c2)c(CNC(=O)Nc2ccc(CO)nc2)s1 [EX-26, 1-((2-(tert-butyl)-4-(3-chlorophenyl)thiazol-5-yl)methyl)-3-(6-(hydroxymethyl)pyridin-3-yl)urea]	10.2
O=C(NCc1oc(C(F)(F)F)nc1-c1cccc(Cl)c1)Nc1ccc(CO)nc1 [EX-27, 1-((4-(3-chlorophenyl)-2-(trifluoromethyl)oxazol-5-yl)methyl)-3-(6-(hydroxymethyl)pyridin-3-yl)urea]	62.5
O=C(NCc1sc(C(F)(F)F)nc1-c1cccc(Cl)c1)Nc1ccc(CO)nc1 [EX-28, 1-((4-(3-chlorophenyl)-2-(trifluoromethyl)thiazol-5-yl)methyl)-3-(6-(hydroxymethyl)pyridin-3-yl)urea]	19.4
CS(=O)(=O)CCc1ccc(NC(=O)NCc2sc(C(F)(F)F)nc2-c2cccc(Cl)c2)cn1 [EX-31, 1-((4-(3-chlorophenyl)-2-(trifluoromethyl)thiazol-5-yl)methyl)-3-(6-(2-(methylsulfonyl)ethyl)pyridin-3-yl)urea]	48.8
O=C(NCc1oc(C(F)(F)F)nc1-c1cccc(Cl)c1)Nc1ccc(N2CC(O)C2)nc1 [EX-32, 1-((4-(3-chlorophenyl)-2-(trifluoromethyl)oxazol-5-yl)methyl)-3-(6-(3-hydroxyazetidin-1-yl)pyridin-3-yl)urea]	60.8
O=C(NCc1sc(C(F)(F)F)nc1-c1cccc(Cl)c1)Nc1ccc(N2CC(O)C2)nc1 [EX-33, 1-((4-(3-chlorophenyl)-2-(trifluoromethyl)thiazol-5-yl)methyl)-3-(6-(3-hydroxyazetidin-1-yl)pyridin-3-yl)urea]	24.6
O=C(NCc1sc(C(F)(F)F)nc1-c1cccc(Cl)c1)Nc1ccc(CCO)nc1 [EX-34, 1-((4-(3-chlorophenyl)-2-(trifluoromethyl)thiazol-5-yl)methyl)-3-(6-(2-hydroxyethyl)pyridin-3-yl)urea]	30.2
